Reference: PubChem BioAssay (NCI)
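Five concentrations, 48 hours, 96-well plates. GI50 = concentration required for 50% inhibition of growth. TGI: concentration producing complete growth inhibition.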

Experiments:
Assay in all cases: growth of human tumour cells (NCI), 48 h
[1] = test system: EKVX NSCLC
[2] = test system: K-562 leukemia
[3] = test system: MDA-MB-231 breast
[4] = test system: RXF 393 renal
[5] = test system: SK-OV-3 ovarian
[6] = test system: SNB-19 CNS
[7] = test system: SNB-75 CNS
[8] = test system: SW-620 colon
[9] = test system: T-47D breast
[10] = test system: HL-60(TB) leukemia

| Compound | GI50 [1] [µM] | TGI [1] [µM] | GI50 [2] [µM] | TGI [2] [µM] | GI50 [3] [µM] | TGI [3] [µM] | GI50 [4] [µM] | TGI [4] [µM] | GI50 [5] [µM] | TGI [5] [µM] | GI50 [6] [µM] | TGI [6] [µM] | GI50 [7] [µM] | TGI [7] [µM] | GI50 [8] [µM] | TGI [8] [µM] | GI50 [9] [µM] | TGI [9] [µM] | GI50 [10] [µM] | TGI [10] [µM] |
| --- | --- | --- | --- | --- | --- | --- | --- | --- | --- | --- | --- | --- | --- | --- | --- | --- | --- | --- | --- | --- |
| COc1cc(C(=O)O[C@H](C(=O)NCCCCCNC(=O)[C@@H](OC(=O)c2cc(OC)cc3c(C)cccc23)[C@]2(C)CO2)[C@]2(C)CO2)c2cccc(C)c2c1 | 0.635 | 3.72 | 0.437 | > 36.3 | 0.893 | 4.03 | < 0.01 | 0.025 | 3.28 | > 30.1 | 0.93 | > 20.4 | 0.911 | 3.43 | < 0.0149 | > 100 | 1 | – | – | – |
| COc1ccc2c(c1)c(=O)oc1cc(OC/C(C)=N\O)ccc12 | 3.38 | > 100 | > 100 | > 100 | 42.9 | > 100 | 56.6 | > 100 | 99.7 | > 100 | 48.3 | > 100 | 14.9 | 42.9 | > 100 | > 100 | > 100 | > 100 | – | – |
| COc1cc([N+](=O)[O-])c(OC)cc1-c1nc2sc(Cl)cn2c1/C(N)=N/C(=N)N | 9.66 | 40.9 | 2.01 | > 100 | 2.19 | 8.25 | 4.3 | 16.9 | 23.7 | > 62.1 | 3.91 | > 100 | – | – | 2.15 | 4.63 | 2.31 | 5.63 | – | – |
| COc1cc([C@@H]2OC[C@@H]3C(c4cc(OC)c5c(c4)OCO5)OC[C@@H]32)cc(OC)c1OC (stereo partly drawn) | – | > 100 | – | > 100 | – | > 100 | – | – | – | > 100 | – | > 100 | – | > 100 | – | > 100 | – | > 100 | – | – |
| CN(CCCn1c2c(c3ccccc3c1=O)C(=O)c1ccccc1-2)CCCn1c2c(c3ccccc3c1=O)C(=O)c1ccccc1-2 | 23.5 | > 100 | 0.335 | – | – | – | – | – | 5.45 | 19.7 | 0.081 | 28 | 1.74 | 5.21 | 0.188 | > 100 | 0.259 | 18.3 | 3.65 | 12.6 |
| O=C1Nc2ccccc2/C1=C/C(=O)c1coc2c1C(=O)c1ccccc1C2=O | – | – | > 100 | > 100 | > 100 | > 100 | > 100 | > 100 | > 100 | > 100 | > 100 | > 100 | 18.9 | > 100 | 99.6 | > 100 | 56.9 | > 100 | > 100 | > 100 |
| COc1ccc(C(=O)OC2C(OC3C(O)COC(O[C@H]4C[C@H]5[C@@H]6CC=C7C[C@@H](O)CC[C@]7(C)[C@H]6CC[C@]5(C)[C@H]4[C@H](C)C(=O)CCC(C)C)C3OC(N)=O)OCC(O)C2O)cc1 (stereo partly drawn) | 0.102 | 4.1 | 0.00924 | 0.3 | 0.355 | 4.58 | < 0.003 | 0.0509 | 0.0423 | 1.34 | 0.381 | 3.2 | < 0.003 | 3.87 | 0.0183 | 0.429 | 0.0501 | 2.02 | – | – |
| C=C1C(=O)O[C@H]2[C@H]1CC/C(COC(=O)NCc1cn(C)c3ccccc13)=C\CC[C@@]1(C)O[C@@H]21 | 1.85 | 4.32 | 0.369 | 9.26 | 1.68 | 3.54 | 1.26 | 2.7 | – | – | 2.84 | 13 | 4.16 | 17.6 | 0.524 | 1.98 | – | – | 0.49 | 2.86 |
| COc1cc2c(cc1C)NC(=O)/C2=C/c1ccccn1 | 0.0532 | 6.88 | 2.71 | > 100 | 2.02 | 7.96 | – | – | 3.41 | > 100 | 4.07 | > 100 | 8.52 | > 100 | 6.91 | > 100 | 19.3 | > 100 | 5.35 | > 100 |
| COc1ccc(-c2c[nH]c(C(=O)O)c2-c2cc(OC)c(OC)c(OC)c2)cc1 | 5.86 | > 100 | 3.08 | > 100 | 12.4 | > 100 | 2.33 | 6.77 | 5.82 | > 100 | 7.24 | > 100 | – | – | 3.94 | > 100 | – | – | 3.06 | 9.59 |
| C=C(C)C(=O)O[C@H]1CC(=C)[C@@H]2C[C@H](O)[C@](O)(CCl)[C@@H]2[C@H]2OC(=O)C(=C)[C@@H]21 | 12.3 | 25.7 | 1.8 | 4.59 | 4.28 | 13.6 | 1.95 | 3.98 | 16.2 | 30.2 | 16.6 | 32.2 | 6.97 | 20.7 | 2.08 | 4.57 | – | – | 1.97 | 4.19 |
| Fc1ccc2c(c1)C1=NN(c3ccccc3)C(F)C1CO2 (stereo not drawn) | 5.64 | 16.4 | 17.6 | > 50 | 5.36 | 13.6 | 7.33 | 41.4 | 25.3 | > 50 | 26.6 | > 50 | 9.01 | 32 | 9.95 | 23.6 | – | – | 17.9 | > 50 |
| Nc1c(C(=O)c2cccc(-c3ccncc3)c2)cnn1-c1ccc(F)cc1F | – | – | 2.57 | > 25 | 15.2 | > 25 | 8.75 | > 25 | 19.8 | > 25 | > 19.3 | > 25 | 4.99 | > 25 | 3.12 | > 25 | 3.67 | > 25 | 5.57 | > 25 |
| C[C@H]1[C@H](C)CC[C@]2(CO)CC[C@]3(C)C(=CC[C@@H]4[C@@]5(C)CCCNC(C)(C)[C@@H]5CC[C@]43C)[C@H]12 | 1.66 | 3.29 | 0.471 | 2.02 | 1.88 | 3.48 | 1.81 | 3.51 | 2.54 | 6.97 | 1.86 | 3.43 | 1.49 | 2.9 | 1.79 | 3.54 | 1.68 | 4.03 | – | – |
| C(#Cc1ccccc1C#Cc1cccs1)c1cccs1 | 73.1 | > 100 | 30.2 | > 100 | 23.4 | 82.1 | 23.9 | > 100 | 33.9 | > 100 | > 100 | > 100 | > 100 | > 100 | 42 | > 100 | 30.2 | > 100 | – | – |
| COc1ccc2nc3cccc([N+](=O)[O-])c3c(NCCCCCC(=O)O)c2c1 | 0.297 | 1.97 | 0.0109 | 0.0251 | 0.838 | 74 | – | – | 0.915 | 5.41 | 0.178 | 2.84 | 0.282 | 1.57 | – | 0.268 | 0.856 | 12 | 0.0372 | 6.2 |
| COc1ccc2cc(C(=O)/C=C/c3ccc(Cl)cc3Cl)ccc2c1 | 9.79 | 26.4 | 2.53 | 14.5 | 44.6 | > 100 | 4.52 | 14.5 | 61.6 | > 100 | 25.7 | 71.5 | – | – | 7.83 | 25.5 | 20.8 | 66.8 | – | – |
| COc1cnc2c(c1)C(=O)c1c-2n(CCCn2ccnc2)c(=O)c2cc(F)ccc12 | 0.167 | > 100 | – | – | 0.35 | 2.17 | 0.0309 | 0.171 | 0.0162 | 0.327 | < 0.01 | 11.4 | 0.187 | 21.8 | 0.0221 | 1.01 | – | – | 0.0363 | 0.311 |
| O=[N+]([O-])c1cc(C(F)(F)F)cc([N+](=O)[O-])c1CCl | – | 13.4 | – | 1.11 | – | – | – | 5.09 | – | 14.6 | – | 19.9 | – | 8.77 | – | 1.63 | – | – | – | 3.21 |
| CC(=O)OCC1OC(n2cnc(C(N)=S)c2N)C(OC(C)=O)C1OC(C)=O (stereo not drawn) | – | – | – | – | – | > 100 | – | – | – | > 100 | – | > 100 | – | > 100 | – | > 100 | – | > 100 | – | > 100 |
| COc1cc2c(c(OC)c1OC)-c1ccc(SC)c(=O)cc1C(CO)C2 (stereo not drawn) | < 0.01 | > 100 | < 0.01 | 23.7 | – | – | < 0.01 | – | < 0.01 | 31.8 | < 0.01 | > 100 | < 0.01 | – | < 0.01 | > 100 | – | – | < 0.01 | 0.0439 |
